Measurements reported in US11000033B2, “Ketone or oxime compound, and herbicide” (NISSAN CHEMICAL CORPORATION, priority 2014, dated 2021).

Assays:
Assay type in all cases: in vivo
rice = test: Test Example 4: effect on crop by soil treatment (symbol b); details: 320 g/ha
In short: (§1)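 Greenhouse culture at 25° C. to 30° C. followed sowing of seed in spots on sterilized diluvial soil with a soil cover close to 1.5 cm thick.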

Chenopodium album [1] = test: Test Example 5: herbicidal effect by foliage application, plastic box (symbol O); details: 320 g/ha, 3 weeks after application
In short: (§2)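 Visual herbicidal score, taken three weeks post-application, of seedlings sprayed on the foliage with water-diluted emulsion at a predetermined amount; plants were 14 days old, greenhouse-raised at 25° C. to 30° C.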

Veronica persica = test: Test Example 5: herbicidal effect by foliage application, plastic box (symbol R); details: 320 g/ha, 3 weeks after application
In short: as §2

rapeseed [2] = test: Test Example 5: effect on crop by foliage application, plastic box (symbol g); details: 320 g/ha, 3 weeks after application
In short: (§3)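 Sterilized diluvial soil, plastic box (21 × 13 × 7 cm); spot sowing, ~1.5 cm soil cover; greenhouse 25–30° C.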

[3] = system: Echinochloa crus-galli var. crus-galli; test: Test Example 4: herbicidal effect by soil treatment (symbol H); details: 320 g/ha
In short: (§4)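 Seeds were sown in sterilized diluvial soil, covered with about 1.5 cm of soil, and the soil surface was sprayed with a water-diluted emulsion of the compound at a predetermined rate. Plants grew in a greenhouse at 25° C. to 30° C.; effects were scored visually 3 weeks after application.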

Avena fatua [4] = test: Test Example 5: herbicidal effect by foliage application, plastic box (symbol I); details: 320 g/ha, 3 weeks after application
In short: as §2

Avena fatua [5] = test: Test Example 4: herbicidal effect by soil treatment (symbol I); details: 320 g/ha
In short: as §4

Digitaria ciliaris [6] = test: Test Example 5: herbicidal effect by foliage application, plastic box (symbol F); details: 320 g/ha, 3 weeks after application
In short: as §2

wheat = test: Test Example 5: effect on crop by foliage application, plastic box (symbol e); details: 320 g/ha, 3 weeks after application
In short: as §3

[7] = system: directly sowed rice plant; test: Test Example 3: effect on crop by foliage application, Wagner pot (symbol b); details: application herbicide amount 320 g/ha
In short: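 Wagner pot (1/10000 are), alluvial soil, submerged 0.1–0.5 cm; sown E. crus-galli var. crus-galli, L. chinensis, C. difformis, rice; greenhouse 25–30 °C.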

rapeseed [8] = test: Test Example 4: effect on crop by soil treatment (symbol g); details: 320 g/ha
In short: as §1

corn = test: Test Example 5: effect on crop by foliage application, plastic box (symbol c); details: 320 g/ha, 3 weeks after application
In short: as §3

Stellaria media = test: Test Example 5: herbicidal effect by foliage application, plastic box (symbol P); details: 320 g/ha, 3 weeks after application
In short: as §2

Lolium multiflorum Lam. = test: Test Example 4: herbicidal effect by soil treatment (symbol K); details: 320 g/ha
In short: as §4

Chenopodium album [9] = test: Test Example 4: herbicidal effect by soil treatment (symbol O); details: 320 g/ha
Description: Herbicidal Effect Test by Soil Treatment
Sterilized diluvial soil was placed in a plastic box having a length of 21 cm, a width of 13 cm, and a depth of 7 cm. Each of the seeds of Digitaria ciliaris, Setaria viridis, Echinochloa crus-galli var. crus-galli, Avena fatua, Alopecurus myosuroides, Lolium multiflorum Lam., Apera spica-venti, Abutilon theophrasti, Amaranthus retroflexus, Chenopodium album, Stellaria media, Galium spurium, Veronica persica, corn, soybean, rice, wheat, beet, and rapeseed was sowed in a spot-like manner and was covered with the soil of a thickness of about 1.5 cm. Subsequently, the emulsion agent of the compound present invention prepared in accordance with Formulation Example 2 was diluted with water so as to be a predetermined herbicide amount and the diluted emulsion agent was uniformly applied to the surface of the soil with a small-size spray. The plastic box was placed in a greenhouse of 25° C. to 30° C. to grow plant. 3 weeks later from the herbicide application, the effect to each plant was investigated in accordance with the criteria of Test Example 1.

Scirpus juncoides = test: Test Example 1: herbicidal activity, application before weed generation in submerged conditions (symbol B); details: application herbicide amount 320 g/ha
In short: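 Flooded alluvial soil (4 cm water) was mixed-sown with the three weed species, and 2.5-leaf rice seedlings were transplanted. On sowing day, a water-diluted emulsion at a predetermined rate was applied to the water surface. After 3 weeks in a 25–30 °C greenhouse, effect was scored 0–5.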

Digitaria ciliaris [10] = test: Test Example 4: herbicidal effect by soil treatment (symbol F); details: 320 g/ha
In short: as §4

| SMILES | b: directly sowed rice plant, effect grade on crop (rice) | O: Chenopodium album, herbicidal effect (criteria 0-5) (Chenopodium album [1]) | R: Veronica persica, herbicidal effect (criteria 0-5) (Veronica persica) | g: rapeseed, effect on crop (criteria 0-5) (rapeseed [2]) | H: Echinochloa crus-galli var. crus-galli, herbicidal effect grade [3] | I: Avena fatua, herbicidal effect (criteria 0-5) (Avena fatua [4]) | I: Avena fatua, herbicidal effect grade (Avena fatua [5]) | F: Digitaria ciliaris, herbicidal effect (criteria 0-5) (Digitaria ciliaris [6]) | e: wheat, effect on crop (criteria 0-5) (wheat) | effect on crop b (directly sowed rice plant), grade 0-5 [7] | g: rapeseed, effect grade on crop (rapeseed [8]) | c: corn, effect on crop (criteria 0-5) (corn) | P: Stellaria media, herbicidal effect (criteria 0-5) (Stellaria media) | K: Lolium multiflorum Lam., herbicidal effect grade (Lolium multiflorum Lam.) | O: Chenopodium album, herbicidal effect grade (Chenopodium album [9]) | Herbicidal effect grade, B: Scirpus juncoides (Scirpus juncoides) | F: Digitaria ciliaris, herbicidal effect grade (Digitaria ciliaris [10]) |
| --- | --- | --- | --- | --- | --- | --- | --- | --- | --- | --- | --- | --- | --- | --- | --- | --- | --- |
| CC(CC1CC(O)=C(c2c(C)cc(C)cc2C)C1=O)=NOCc1ccc(C(F)(F)F)cc1 (stereo not shown) [1-138] | 5 (Herbicidal ratio of 90% or more (almost completely withered)) | 0 (Herbicidal ratio of 5% or lower (almost no effect)) | 3 (Herbicidal ratio of 40% or higher and lower than 70%) | 4 (Herbicidal ratio of 70% or higher and lower than 90%) | 5 (Herbicidal ratio of 90% or more (almost completely withered)) | 5 (Herbicidal ratio of 90% or more (almost completely withered)) | 0 (Herbicidal ratio of 5% or lower (almost no effect)) | 5 (Herbicidal ratio of 90% or more (almost completely withered)) | 3 (Herbicidal ratio of 40% or higher and lower than 70%) | 5 (Herbicidal ratio of 90% or more (almost completely withered)) | 0 (Herbicidal ratio of 5% or lower (almost no effect)) | 2 (Herbicidal ratio of 20% or higher and lower than 40%) | 1 (Herbicidal ratio of 5% or higher and lower than 20%) | 5 (Herbicidal ratio of 90% or more (almost completely withered)) | 0 (Herbicidal ratio of 5% or lower (almost no effect)) | 5 (Herbicidal ratio of 90% or more (almost completely withered)) | – |
| CON=C(C)CC1CC(OC(=O)N(C)CCCCCl)=C(c2c(C)cc(C)cc2C)C1=O (stereo not shown) [1-126] | 0 (Herbicidal ratio of 5% or lower (almost no effect)) | – | 0 (Herbicidal ratio of 5% or lower (almost no effect)) | 4 (Herbicidal ratio of 70% or higher and lower than 90%) | 0 (Herbicidal ratio of 5% or lower (almost no effect)) | 3 (Herbicidal ratio of 40% or higher and lower than 70%) | 0 (Herbicidal ratio of 5% or lower (almost no effect)) | 3 (Herbicidal ratio of 40% or higher and lower than 70%) | 0 (Herbicidal ratio of 5% or lower (almost no effect)) | 5 (Herbicidal ratio of 90% or more (almost completely withered)) | 0 (Herbicidal ratio of 5% or lower (almost no effect)) | 0 (Herbicidal ratio of 5% or lower (almost no effect)) | 0 (Herbicidal ratio of 5% or lower (almost no effect)) | 4 (Herbicidal ratio of 70% or higher and lower than 90%) | 0 (Herbicidal ratio of 5% or lower (almost no effect)) | 0 (Herbicidal ratio of 5% or lower (almost no effect)) | 0 (Herbicidal ratio of 5% or lower (almost no effect)) |
| CON=C(C)CC1CC(OC(=O)N(C)C)=C(c2c(C)cc(C)cc2C)C1=O (stereo not shown) [1-108] | 5 (Herbicidal ratio of 90% or more (almost completely withered)) | 0 (Herbicidal ratio of 5% or lower (almost no effect)) | 1 (Herbicidal ratio of 5% or higher and lower than 20%) | 4 (Herbicidal ratio of 70% or higher and lower than 90%) | 5 (Herbicidal ratio of 90% or more (almost completely withered)) | 5 (Herbicidal ratio of 90% or more (almost completely withered)) | 3 (Herbicidal ratio of 40% or higher and lower than 70%) | 5 (Herbicidal ratio of 90% or more (almost completely withered)) | 3 (Herbicidal ratio of 40% or higher and lower than 70%) | 5 (Herbicidal ratio of 90% or more (almost completely withered)) | 4 (Herbicidal ratio of 70% or higher and lower than 90%) | 5 (Herbicidal ratio of 90% or more (almost completely withered)) | 3 (Herbicidal ratio of 40% or higher and lower than 70%) | 5 (Herbicidal ratio of 90% or more (almost completely withered)) | – | 4 (Herbicidal ratio of 70% or higher and lower than 90%) | 5 (Herbicidal ratio of 90% or more (almost completely withered)) |
| CON=C(C)CC1CC(OC(=O)C(CSC)=NOC)=C(c2c(C)cc(C)cc2C)C1=O (stereo not shown) [1-098] | 5 (Herbicidal ratio of 90% or more (almost completely withered)) | 0 (Herbicidal ratio of 5% or lower (almost no effect)) | 3 (Herbicidal ratio of 40% or higher and lower than 70%) | 5 (Herbicidal ratio of 90% or more (almost completely withered)) | 5 (Herbicidal ratio of 90% or more (almost completely withered)) | 5 (Herbicidal ratio of 90% or more (almost completely withered)) | 2 (Herbicidal ratio of 20% or higher and lower than 40%) | 5 (Herbicidal ratio of 90% or more (almost completely withered)) | 5 (Herbicidal ratio of 90% or more (almost completely withered)) | 5 (Herbicidal ratio of 90% or more (almost completely withered)) | 5 (Herbicidal ratio of 90% or more (almost completely withered)) | 5 (Herbicidal ratio of 90% or more (almost completely withered)) | 3 (Herbicidal ratio of 40% or higher and lower than 70%) | 5 (Herbicidal ratio of 90% or more (almost completely withered)) | – | 5 (Herbicidal ratio of 90% or more (almost completely withered)) | 5 (Herbicidal ratio of 90% or more (almost completely withered)) |
